From patent US8492557B2, “Ester pro-drugs of [3-(1-(1H-imidazol-4-yl)ethyl)-2-methylphenyl] methanol” (Allergan, Inc., priority 2010, dated 2013) come the findings set out here.

One assay addresses T1, bovine α1A receptor (Bos taurus, UniProt P18130).
T1 sequence (P18130 1-466): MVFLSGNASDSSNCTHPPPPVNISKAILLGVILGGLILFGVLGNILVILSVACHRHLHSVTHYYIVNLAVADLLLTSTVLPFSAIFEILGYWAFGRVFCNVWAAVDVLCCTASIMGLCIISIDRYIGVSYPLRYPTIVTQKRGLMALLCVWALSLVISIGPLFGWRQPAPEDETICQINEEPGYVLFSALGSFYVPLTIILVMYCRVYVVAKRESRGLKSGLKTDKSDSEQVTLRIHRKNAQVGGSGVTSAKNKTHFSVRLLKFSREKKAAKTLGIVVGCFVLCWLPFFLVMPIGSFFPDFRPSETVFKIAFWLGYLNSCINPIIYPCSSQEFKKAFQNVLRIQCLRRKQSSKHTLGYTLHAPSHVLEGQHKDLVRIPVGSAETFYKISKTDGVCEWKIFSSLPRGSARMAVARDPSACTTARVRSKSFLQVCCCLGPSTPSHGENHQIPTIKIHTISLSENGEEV
Kind of assay: FLIPR Ca+2 influx assay, a1A. The format is cell-based. The conditions noted are these: for a1A (eff): efficacy in brackets, norepinephrine is the standard full agonist, HEK 293 cells. The protocol: (§1) HEK 293 cells stably expressing the bovine α1A receptor, human alpha 2A receptor and the chimeric G protein Gqi5, are plated in poly-D-lysine coated 384-well plates at 20,000-40,000 cells per well and grown overnight in DMEM supplemented with 10% fetal bovine serum. For FLIPR (fluorometric image plate reader) evaluation, cells are washed twice with HBSS/HEPES Buffer (1× Hanks Buffered Salt Solution, 20 mM HEPES, pH 7.4) prior to the addition of Fluo-4-AM (4 uM Fluo-4-AM, 0.04% pluronic acid in HBSS/HEPES Buffer), a calcium-sensitive dye. Cells are loaded with dye for 40 minutes at 37° C., then washed 4 times with HBSS/HEPES Buffer. For both the agonist and antagonist assay, the test compounds are tested between 0.64 nM-10,000 nM.
(§2) For an agonist assay, the reaction is initiated by the addition of the appropriate dilutions of compounds and the transient calcium signal captured. The peak height of the calcium curve is determined and utilized for calculation of EC50 and efficacy using ActivityBase. Norepinephrine is the standard full agonist used for evaluating alpha-1 and alpha-2 receptor activity.
However, the antagonist blocks the transient calcium signal of the standard agonist norepinephrine in a dose-dependent manner. The residual norepinephrine peak height is compared to the non-antagonized norepinephrine peak height for the determination of % antagonism.

A further assay has as its target T2, human alpha 2A receptor (Homo sapiens, UniProt P08913).
T2 construct: expressed in transfected cells; host or cells: HEK 293
T2 sequence (P08913 1-465): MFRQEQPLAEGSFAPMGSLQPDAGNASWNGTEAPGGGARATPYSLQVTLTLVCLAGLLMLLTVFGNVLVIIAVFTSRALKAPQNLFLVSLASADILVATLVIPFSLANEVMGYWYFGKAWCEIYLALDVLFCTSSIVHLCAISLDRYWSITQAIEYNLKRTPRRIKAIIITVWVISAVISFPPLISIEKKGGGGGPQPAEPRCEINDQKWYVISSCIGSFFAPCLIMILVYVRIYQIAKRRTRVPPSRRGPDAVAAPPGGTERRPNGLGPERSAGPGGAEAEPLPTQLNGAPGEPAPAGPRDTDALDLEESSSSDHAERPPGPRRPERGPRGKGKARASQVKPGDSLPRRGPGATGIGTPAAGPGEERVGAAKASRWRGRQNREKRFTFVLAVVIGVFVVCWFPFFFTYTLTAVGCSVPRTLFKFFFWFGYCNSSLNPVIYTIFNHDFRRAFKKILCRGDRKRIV
Kind of assay: FLIPR Ca+2 influx assay, a2A. The conditions noted are these: for a2A (eff): efficacy in brackets, norepinephrine is the standard full agonist, HEK 293 cells. The format is cell-based. The protocol: as §1, §2
The residual norepinephrine peak height is compared to the non-antagonized norepinephrine peak height for the determination of % antagonism.

Each structure is given as a SMILES string. Read-outs that look alike come from different tables or passages of the source.

The term EC50 denotes the concentration needed to bring the measured effect to its halfway point. In the case of `Cc1c(CO)cccc1[C@H](C)c1c[nH]cn1` [(S)-[3-(1-(1H-imidazol-4-yl)ethyl)-2-methylphenyl]methanol], on bovine α1A receptor, the half-maximal effective concentration (EC50) fell in the range of 0.34 to 2.4 µM and the “a1A (eff)” value was determined as 0.7. Moreover, at human alpha 2A receptor, the EC50 was 0.025 µM and the “a2A (eff)” value was 0.9.
For `Brc1c(NC2=NCCN2)ccc2nccnc12` [Brimonidine], the EC50 on bovine α1A receptor (HEK 293 cells with chimeric G protein Gqi5, agonist assay, tested 0.64 nM-10,000 nM, n/a: Not active, read-out: a1A EC50) is 0.6 to 2.4 µM. Besides, on bovine α1A receptor, the “a1A (eff)” value came to 0.3. Further, the “a2A (eff)” value at human alpha 2A receptor is 0.95.
